Results taken from US11608330B2, “Methylamine derivatives as lysysl oxidase inhibitors for the treatment of cancer” (The Institute of Cancer Research: Royal Cancer Hospital, priority 2016, dated 2023).

Key:
[1] = test system: MATN2 in MDA-MB-231 cells; test: MATN2 level in MDA-MB-231 cells; format: cell-based, human; conditions: at a much higher concentration
Description: Proteins were extracted from cultured cells using cell lysis buffer (Cell Signalling Technology) with the addition of protease and phosphatase inhibitor cocktails (Pierce). Protein concentrations were measured using Pierce 660 nm protein assay reagent and SpectaMax M5 plate reader. […] Separated proteins were transferred to nitrocellulose membranes using a Trans-Blot turbo transfer system (Bio-Rad). Following blocking with Odyssey blocking buffer (Li—COR), membranes were incubated with two primary antibodies of different species at 4° C. over night. Corresponding fluorescence secondary antibodies (Li—COR) of different excitation and emission wavelengths were used to visualize the protein of interest on an Odyssey CLx infrared imaging system (Li—COR). Quantification of band fluorescent intensity was achieved using Li-COR ImageStudio. The following primary antibodies were used, anti-LOX (Sigma), anti-human MATN2 (R&D), anti-EGFR and anti-pY1068EGFR (Cell Signalling Technology), and anti-GAPDH (Millipore).

[2] = test system: TGF beta signalling (pSMAD2); format: cell-based

`N#CCCN` [BAPN, beta-aminopropionitrile] was tested, and the “reduction of MATN2” value [1] was “same effect” and the “TGF beta signalling as indicated by pSMAD2” value [2] was “increased TGF beta signalling”.
